# Data published in PubChem BioAssay (NCI).
#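 The compound was tested at five concentrations on cells cultured in 96-well plates, with a 48-hour exposure period. Definition used: TGI = concentration required for complete inhibition of growth.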
# Columns and labels:
# Test in all cases: inhibition of tumour cell growth, NCI panel, 48 h
# MOLT-4 leukemia = test system: MOLT-4 leukemia
# NCI/ADR-RES ovarian = test system: NCI/ADR-RES ovarian
# SK-MEL-28 melanoma = test system: SK-MEL-28 melanoma
# SNB-19 CNS = test system: SNB-19 CNS
# COLO 205 colon = test system: COLO 205 colon
# RPMI-8226 leukemia = test system: RPMI-8226 leukemia
# OVCAR-8 ovarian = test system: OVCAR-8 ovarian
# SF-268 CNS = test system: SF-268 CNS
# 786-0 renal = test system: 786-0 renal
# HCC-2998 colon = test system: HCC-2998 colon
# HOP-62 NSCLC = test system: HOP-62 NSCLC
# CCRF-CEM leukemia = test system: CCRF-CEM leukemia
# MDA-N = test system: MDA-N
# HS 578T breast = test system: HS 578T breast
# SK-MEL-5 melanoma = test system: SK-MEL-5 melanoma
# UACC-257 melanoma = test system: UACC-257 melanoma
# HT29 colon = test system: HT29 colon
# MCF7 breast = test system: MCF7 breast
# OVCAR-3 ovarian = test system: OVCAR-3 ovarian
# SF-539 CNS = test system: SF-539 CNS
# UACC-62 melanoma = test system: UACC-62 melanoma
# OVCAR-5 ovarian = test system: OVCAR-5 ovarian
# NCI-H460 lung = test system: NCI-H460 lung
# KM12 colon = test system: KM12 colon
# HCT-15 colon = test system: HCT-15 colon
# EKVX NSCLC = test system: EKVX NSCLC
# HCT-116 colon = test system: HCT-116 colon
# M14 melanoma = test system: M14 melanoma
# HOP-92 NSCLC = test system: HOP-92 NSCLC
# NCI-H522 lung = test system: NCI-H522 lung
# T-47D breast = test system: T-47D breast
# TK-10 renal = test system: TK-10 renal
# NCI-H23 lung = test system: NCI-H23 lung
# SR leukemia = test system: SR leukemia
# SW-620 colon = test system: SW-620 colon
# MDA-MB-435 = test system: MDA-MB-435
# MALME-3M melanoma = test system: MALME-3M melanoma
# SN12C renal = test system: SN12C renal
# CAKI-1 renal = test system: CAKI-1 renal
# U251 CNS = test system: U251 CNS
# LOX IMVI melanoma = test system: LOX IMVI melanoma
# HL-60(TB) leukemia = test system: HL-60(TB) leukemia
# IGROV1 ovarian = test system: IGROV1 ovarian
# MDA-MB-231 breast = test system: MDA-MB-231 breast
# NCI-H226 lung = test system: NCI-H226 lung
# PC-3 prostate = test system: PC-3 prostate
# SF-295 CNS = test system: SF-295 CNS
# SK-OV-3 ovarian = test system: SK-OV-3 ovarian
# RXF 393 renal = test system: RXF 393 renal
# K-562 leukemia = test system: K-562 leukemia
# ACHN renal = test system: ACHN renal
# DU-145 prostate = test system: DU-145 prostate
# OVCAR-4 ovarian = test system: OVCAR-4 ovarian
# A549 NSCLC = test system: A549 NSCLC
# SNB-75 CNS = test system: SNB-75 CNS
# UO-31 renal = test system: UO-31 renal
# SK-MEL-2 melanoma = test system: SK-MEL-2 melanoma
compound,measurement,setting,value
C/C=C(/C)C(=O)O[C@H]1C[C@@H]2[C@@H](O)c3occ(C)c3C[C@]2(C)[C@@H](C)C1,TGI,MOLT-4 leukemia,37.1 µM
same,TGI,NCI/ADR-RES ovarian,28.3 µM
same,TGI,SK-MEL-28 melanoma,29.9 µM
same,TGI,SNB-19 CNS,31.5 µM
same,TGI,COLO 205 colon,30.2 µM
same,TGI,RPMI-8226 leukemia,76.5 µM
same,TGI,OVCAR-8 ovarian,36.9 µM
same,TGI,SF-268 CNS,31 µM
same,TGI,786-0 renal,29.7 µM
same,TGI,HCC-2998 colon,34 µM
same,TGI,HOP-62 NSCLC,31.3 µM
same,TGI,CCRF-CEM leukemia,47.4 µM
same,TGI,MDA-N,41.7 µM
same,TGI,HS 578T breast,66.7 µM
same,TGI,SK-MEL-5 melanoma,22.6 µM
same,TGI,UACC-257 melanoma,23.2 µM
same,TGI,HT29 colon,31.1 µM
same,TGI,MCF7 breast,38.9 µM
same,TGI,OVCAR-3 ovarian,31.1 µM
same,TGI,SF-539 CNS,31.4 µM
same,TGI,UACC-62 melanoma,27.2 µM
same,TGI,OVCAR-5 ovarian,34.8 µM
same,TGI,NCI-H460 lung,46.8 µM
same,TGI,KM12 colon,30.2 µM
same,TGI,HCT-15 colon,44.3 µM
same,TGI,EKVX NSCLC,30.5 µM
same,TGI,HCT-116 colon,28.5 µM
same,TGI,M14 melanoma,29.9 µM
same,TGI,HOP-92 NSCLC,31.4 µM
same,TGI,NCI-H522 lung,30.6 µM
same,TGI,T-47D breast,30 µM
same,TGI,TK-10 renal,33.8 µM
same,TGI,NCI-H23 lung,33.1 µM
same,TGI,SR leukemia,43.8 µM
same,TGI,SW-620 colon,32.6 µM
same,TGI,MDA-MB-435,33 µM
same,TGI,MALME-3M melanoma,29.2 µM
same,TGI,SN12C renal,27.3 µM
same,TGI,CAKI-1 renal,33.3 µM
same,TGI,U251 CNS,28.3 µM
same,TGI,LOX IMVI melanoma,32.8 µM
same,TGI,HL-60(TB) leukemia,28.9 µM
same,TGI,IGROV1 ovarian,30.8 µM
same,TGI,MDA-MB-231 breast,29.2 µM
same,TGI,NCI-H226 lung,29.2 µM
same,TGI,PC-3 prostate,35.2 µM
same,TGI,SF-295 CNS,28.9 µM
same,TGI,SK-OV-3 ovarian,30.9 µM
same,TGI,RXF 393 renal,28.9 µM
same,TGI,K-562 leukemia,28.5 µM
same,TGI,ACHN renal,31 µM
same,TGI,DU-145 prostate,28.2 µM
same,TGI,OVCAR-4 ovarian,32.6 µM
CC1(C)CC(=O)C(/C=N/c2nc(-c3ccccc3)cs2)=C(O)C1,TGI,MOLT-4 leukemia,> 100 µM
same,TGI,NCI/ADR-RES ovarian,> 100 µM
same,TGI,SK-MEL-28 melanoma,> 100 µM
same,TGI,SNB-19 CNS,> 100 µM
same,TGI,COLO 205 colon,> 100 µM
same,TGI,A549 NSCLC,> 100 µM
same,TGI,OVCAR-8 ovarian,> 100 µM
same,TGI,786-0 renal,> 100 µM
same,TGI,HCC-2998 colon,> 100 µM
same,TGI,HOP-62 NSCLC,> 100 µM
same,TGI,MDA-N,> 100 µM
same,TGI,SK-MEL-5 melanoma,> 100 µM
same,TGI,UACC-257 melanoma,> 100 µM
same,TGI,HT29 colon,> 100 µM
same,TGI,MCF7 breast,> 100 µM
same,TGI,OVCAR-3 ovarian,> 100 µM
same,TGI,SF-539 CNS,64.7 µM
same,TGI,SNB-75 CNS,> 100 µM
same,TGI,OVCAR-5 ovarian,> 100 µM
same,TGI,NCI-H460 lung,> 100 µM
same,TGI,KM12 colon,> 100 µM
same,TGI,HCT-15 colon,63.7 µM
same,TGI,EKVX NSCLC,> 100 µM
same,TGI,HCT-116 colon,> 100 µM
same,TGI,M14 melanoma,> 100 µM
same,TGI,HOP-92 NSCLC,> 100 µM
same,TGI,T-47D breast,> 100 µM
same,TGI,TK-10 renal,> 100 µM
same,TGI,NCI-H23 lung,> 100 µM
same,TGI,SW-620 colon,> 100 µM
same,TGI,MDA-MB-435,73.6 µM
same,TGI,SN12C renal,> 100 µM
same,TGI,UO-31 renal,> 100 µM
same,TGI,U251 CNS,> 100 µM
same,TGI,LOX IMVI melanoma,> 100 µM
same,TGI,HL-60(TB) leukemia,> 100 µM
same,TGI,SK-MEL-2 melanoma,> 100 µM
same,TGI,IGROV1 ovarian,87.9 µM
same,TGI,MDA-MB-231 breast,96.8 µM
same,TGI,NCI-H226 lung,> 100 µM
same,TGI,PC-3 prostate,> 100 µM
same,TGI,SF-295 CNS,> 100 µM
same,TGI,SK-OV-3 ovarian,> 100 µM
same,TGI,ACHN renal,> 100 µM
same,TGI,DU-145 prostate,> 100 µM
same,TGI,OVCAR-4 ovarian,> 100 µM
